Values of other authors in patent EP3331513B1, “HYDROALCOHOLIC SOLUTIONS COLOURED WITH CHLORHEXIDINE, METHODS FOR THE PRODUCTION THEREOF, AND USES OF SAME” (Université Claude Bernard Lyon I, priority 2015, dated 2017).

Question: For [H]/N=C(\N/C(=N/[H])NCCCCCCNC(=N)NC(=N)Nc1ccc(Cl)cc1)Nc1ccc(Cl)cc1 [digluconate de chlorhexidine], which “solubilité dans les alcools” value (alcools primaires en C2 et C3, notamment éthanol) is on record?
Answer: Its value is “assez soluble”.

Question: And the “solubilité dans l'eau” value (eau)?
Answer: The value was “miscible à l'eau”.
